# From patent US12404283B2, “c-MYC mRNA translation modulators and uses thereof in the treatment of cancer” (Anima Biotech Inc., priority 2022, dated 2025)
# Tested on: c-Myc
# Assay: c-Myc immunofluorescence assay
# Format: cell-based, human
# Conditions: A549 cells, 24 hours treatment, anti-c-Myc immunofluorescence
# How it was run: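 High-content imaging (20×) of PFA-fixed A549 cells immunostained for c-Myc with DAPI nuclei, after 24 h compound treatment at increasing concentrations. Per-cell c-Myc signal in identified cell regions was plotted against dose and fitted by logistic regression to give EC50.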
row,SMILES,Myc Efficacy (−LogEC50)
1,"CNC(=O)c1ccc(-c2cn3c(n2)sc2cc(C(=O)NC[C@H]4CCCN(C)C4)ccc23)cc1 [compound 212, (R)-2-(4-(methylcarbamoyl)phenyl)-N-((1-methylpiperidin-3-yl)methyl)benzo[d]imidazo [2,1-b]thiazole-7-carboxamide]",+ (+ >3 and <5)
2,"CNC(=O)c1ccc(-c2cn3c(n2)sc2cc(C(=O)N[C@@H](CO)c4ccccc4)ccc23)cc1 [compound 213, (R)-N-(2-hydroxy-1-phenylethyl)-2-(4-(methylcarbamoyl)phenyl) benzo[d]imidazo[2,1-b]thiazole-7-carboxamide]",+ (+ >3 and <5)
3,"CCN1CCC[C@@H]1CNC(=O)c1ccc2c(c1)sc1nc(-c3ccc(C(=O)NC)cc3)cn12 [compound 214, (R)-N-((1-ethylpyrrolidin-2-yl)methyl)-2-(4-(methylcarbamoyl)phenyl) benzo[d]imidazo[2,1-b]thiazole-7-carboxamide]",+ (+ >3 and <5)
4,"CCN1CCC(CNC(=O)c2ccc3c(c2)sc2nc(-c4ccc(C(=O)NC)cc4)cn23)CC1 [compound 215, N-((1-ethylpiperidin-4-yl)methyl)-2-(4-(methylcarbamoyl)phenyl) benzo[d]imidazo[2,1-b]thiazole-7-carboxamide]",− (− ≤3)
5,"CNC(=O)c1ccc(-c2cn3c(n2)sc2cc(C(=O)NCC4(N(C)C)CCCCC4)ccc23)cc1 [compound 216, N-((1-(dimethylamino)cyclohexyl)methyl)-2-(4-(methylcarbamoyl)phenyl) benzo[d]imidazo[2,1-b]thiazole-7-carboxamide]",+ (+ >3 and <5)
6,"CNC(=O)c1ccc(-c2cn3c(n2)sc2cc(C(=O)NCCN(C(C)C)C(C)C)ccc23)cc1 [compound 217, N-(2-(diisopropylamino)ethyl)-2-(4-(methylcarbamoyl)phenyl) benzo[d]imidazo[2,1-b]thiazole-7-carboxamide]",+ (+ >3 and <5)
7,"CCN(CC)CCCNC(=O)c1ccc2c(c1)sc1nc(-c3ccc(C(NC)C(F)(F)F)cc3)cn12 (stereo not shown) [compound 218, N-(3-(diethylamino)propyl)-2-(4-(2,2,2-trifluoro-1-(methylamino)ethyl)phenyl) benzo[d]imidazo[2,1-b]thiazole-7-carboxamide]",++ (++ ≥5 and <6)
8,"CNC(=O)c1ccc(-c2cn3c(n2)sc2cc(C(=O)N[C@H]4COC[C@@H]4O)ccc23)cc1 [compound 219, N-((3S,4R)-4-hydroxytetrahydrofuran-3-yl)-2-(4-(methylcarbamoyl)phenyl) benzo[d]imidazo[2,1-b]thiazole-7-carboxamide]",+ (+ >3 and <5)
9,"CNC(=O)c1ccc(-c2cn3c(n2)sc2cc(C(=O)N[C@@H](C)CN)ccc23)cc1 [compound 220, (S)-N-(1-aminopropan-2-yl)-2-(4-(methylcarbamoyl)phenyl) benzo[d]imidazo[2,1-b]thiazole-7-carboxamide]",+ (+ >3 and <5)
10,"CNC(=O)c1ccc(-c2cn3c(n2)sc2cc(C(=O)NC(C)Cn4cccn4)ccc23)cc1 (stereo not shown) [compound 221, N-(1-(1H-pyrazol-1-yl)propan-2-yl)-2-(4-(methylcarbamoyl)phenyl) benzo[d]imidazo[2,1-b]thiazole-7-carboxamide]",+ (+ >3 and <5)
11,"CNC(=O)c1ccc(-c2cn3c(n2)sc2cc(C(=O)N[C@H]4CCNC4)ccc23)cc1 [compound 222, (S)-2-(4-(methylcarbamoyl)phenyl)-N-(pyrrolidin-3-yl)benzo[d]imidazo[2,1-b]thiazole-7-carboxamide]",+ (+ >3 and <5)
12,"CNC(=O)c1ccc(-c2cn3c(n2)sc2cc(C(=O)NCc4nncn4C4CC4)ccc23)cc1 [compound 223, N-((4-cyclopropyl-4H-1,2,4-triazol-3-yl)methyl)-2-(4-(methylcarbamoyl)phenyl) benzo[d]imidazo[2,1-b]thiazole-7-carboxamide]",− (− ≤3)
13,"CNC(=O)c1ccc(-c2cn3c(n2)sc2cc(C(=O)NC[C@H]4CCCN4)ccc23)cc1 [compound 224, (R)-2-(4-(methylcarbamoyl)phenyl)-N-(pyrrolidin-2-ylmethyl)benzo[d]imidazo[2,1-b]thiazole-7-carboxamide]",− (− ≤3)
14,"CNC(=O)c1ccc(-c2cn3c(n2)sc2cc(C(=O)N[C@H]4CCN(C)C4)ccc23)cc1 [compound 225, (S)-2-(4-(methylcarbamoyl)phenyl)-N-(1-methylpyrrolidin-3-yl)benzo[d]imidazo[2,1-b]thiazole-7-carboxamide]",+ (+ >3 and <5)
15,"CNC(=O)c1ccc(-c2cn3c(n2)sc2cc(C(=O)NCC4CC(O)C4)ccc23)cc1 (stereo not shown) [compound 226, N-((3-hydroxycyclobutyl)methyl)-2-(4-(methylcarbamoyl)phenyl) benzo[d]imidazo[2,1-b]thiazole-7-carboxamide]",− (− ≤3)
16,"CNC(=O)c1ccc(-c2cn3c(n2)sc2cc(C(=O)N[C@H]4CCCNC4)ccc23)cc1 [compound 227, (S)-2-(4-(methylcarbamoyl)phenyl)-N-(piperidin-3-yl)benzo[d] imidazo[2,1-b]thiazole-7-carboxamide]",++ (++ ≥5 and <6)

row,SMILES,Myc Efficacy (−LogEC50)
1,"CNC(=O)c1ccc(-c2cn3c(n2)sc2cc(C(=O)N[C@H]4CCCCN(C)C4=O)ccc23)cc1 [compound 228, (S)-N-(1-methyl-2-oxoazepan-3-yl)-2-(4-(methylcarbamoyl)phenyl) benzo[d]imidazo[2,1-b]thiazole-7-carboxamide]",+ (+ >3 and <5)
2,"CNCCCCNC(=O)c1ccc2c(c1)sc1nc(-c3ccc(C(=O)NC)cc3)cn12 [compound 229, N-(4-(methylamino)butyl)-2-(4-(methylcarbamoyl)phenyl) benzo[d]imidazo[2,1-b]thiazole-7-carboxamide]",+ (+ >3 and <5)
3,"CNC(=O)c1ccc(-c2cn3c(n2)sc2cc(C(=O)NCC4CCC5(CCNCC5)O4)ccc23)cc1 (stereo not shown) [compound 230, N-((1-oxa-8-azaspiro[4.5]decan-2-yl)methyl)-2-(4-(methylcarbamoyl)phenyl) benzo[d]imidazo[2,1-b]thiazole-7-carboxamide]",+ (+ >3 and <5)
4,"CNC(=O)c1ccc(-c2cn3c(n2)sc2cc(C(=O)N[C@H]4CN5CCC4CC5)ccc23)cc1 [compound 231, (R)-2-(4-(methylcarbamoyl)phenyl)-N-(quinuelidin-3-yl)benzo[d]imidazo[2,1-b]thiazole-7-carboxamide]",− (− ≤3)
5,"CNC(=O)c1ccc(-c2cn3c(n2)sc2cc(C(=O)NCCCn4nc(C)cc4C)ccc23)cc1 [compound 232, N-(3-(3,5-dimethyl-1H-pyrazol-1-yl)propyl)-2-(4-(methylcarbamoyl)phenyl) benzo[d]imidazo[2,1-b]thiazole-7-carboxamide]",− (− ≤3)
6,"CCN1CCC(CNC(=O)c2ccc3c(c2)sc2nc(-c4ccc(C(=O)NC)cc4)cn23)C1 (stereo not shown) [compound 233, N-((1-ethylpyrrolidin-3-yl)methyl)-2-(4-(methylcarbamoyl)phenyl) benzo[d]imidazo[2,1-b]thiazole-7-carboxamide]",− (− ≤3)
7,"CNC(=O)c1ccc(-c2cn3c(n2)sc2cc(C(=O)NC(C)C4CCOCC4)ccc23)cc1 (stereo not shown) [compound 234, 2-(4-(methylcarbamoyl)phenyl)-N-(1-(tetrahydro-2H-pyran-4-yl)ethyl)benzo[d]imidazo [2,1-b]thiazole-7-carboxamide]",+ (+ >3 and <5)
8,"CNC(=O)c1ccc(-c2cn3c(n2)sc2cc(C(=O)NCCCn4ccnc4)ccc23)cc1 [compound 235, N-(3-(1H-imidazol-1-yl)propyl)-2-(4-(methylcarbamoyl)phenyl) benzo[d]imidazo[2,1-b]thiazole-7-carboxamide]",+ (+ >3 and <5)
9,"CNC(=O)c1ccc(-c2cn3c(n2)sc2cc(C(=O)NC4CC(=O)N(C)C4)ccc23)cc1 (stereo not shown) [compound 236, N-(1-methyl-5-oxopyrrolidin-3-yl)-2-(4-(methylcarbamoyl)phenyl) benzo[d]imidazo[2,1-b]thiazole-7-carboxamide]",− (− ≤3)
10,"CNC(=O)c1ccc(-c2cn3c(n2)sc2cc(C(=O)NC4(CO)CCOCC4)ccc23)cc1 [compound 237, N-(4-(hydroxymethyl)tetrahydro-2H-pyran-4-yl)-2-(4-(methylcarbamoyl)phenyl) benzo[d]imidazo[2,1-b]thiazole-7-carboxamide]",− (− ≤3)
11,"CNC(=O)c1ccc(-c2cn3c(n2)sc2cc(C(=O)N[C@H]4[C@H]5CN[C@@H]4C5)ccc23)cc1 [compound 238, N-((1R,4R,5S)-2-azabicyclo[2.1.1]hexan-5-(methylcarbamoyl)phenyl) benzo[d]imidazo[2,1-b]thiazole-7-carboxamide]",− (− ≤3)
12,"CNC(=O)c1ccc(-c2cn3c(n2)sc2cc(C(=O)NC4CC4OC)ccc23)cc1 (stereo not shown) [compound 240, N-(2-methoxycyclopropyl)-2-(4-(methylcarbamoyl)phenyl) benzo[d]imidazo[2,1-b] thiazole-7-carboxamide]",+ (+ >3 and <5)
13,"CNC(=O)c1ccc(-c2cn3c(n2)sc2cc(C(=O)NC4CC5(CNC5)C4)ccc23)cc1 [compound 241, 2-(4-(methylcarbamoyl)phenyl)-N-(2-azaspiro[3.3]heptan-6-yl)benzo[d]imidazo[2,1-b] thiazole-7-carboxamide]",+ (+ >3 and <5)
14,"CC[C@H](NC(=O)c1ccc2c(c1)sc1nc(-c3ccc(C(=O)NC)cc3)cn12)c1ccnn1C [compound 242, (S)-N-(1-(1-methyl-1H-pyrazol-5-yl)propyl)-2-(4-(methylcarbamoyl)phenyl) benzo[d]imidazo[2,1-b] thiazole-7-carboxamide]",+ (+ >3 and <5)
15,"CCc1nccn1CCNC(=O)c1ccc2c(c1)sc1nc(-c3ccc(C(=O)NC)cc3)cn12 [compound 243, N-(2-(2-ethyl-1H-imidazol-1-yl)ethyl)-2-(4-(methylcarbamoyl)phenyl) benzo[d]imidazo[2,1-b] thiazole-7-carboxamide]",+ (+ >3 and <5)
